Experimental data: patent publication US20040116420A1 (priority 2001, published 2004)

Legend:
HSV-1 protease = target: T1, HSV-1 protease (Human herpesvirus 1, UniProt P10210); assay: Enzymatic assay for HSV-1 protease (assembly) inhibitor, fluorescence polarization; assay type: biochemical; settings: read-out: HSV-1 Enzyme inhibition IC50
T1 construct: 6xHis (N); made in house; host or cells: baculovirus expression system
Summary of the method: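 His6-tagged HSV-1 UL26 protease, baculovirus-expressed, preincubated 30 min at RT with compound in 1 M citrate/phosphate buffer pH 7.4 with 20% glycerol and 2 mM TCEP. A biotin-HTYLQA*SERFRIK-DTAF substrate was then cleaved for 60 min at RT, stopped with avidin, and read by fluorescence polarization versus no-inhibitor control.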

HSV-1 = assay: Antiviral activity, HSV-1 in Vero cells, plaque method; assay type: cell-based; settings: Human alphaherpesvirus 1, 20 hours, 90% inhibition of plaque formation
Summary of the method: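 HSV-1 (50,000 pfu in 2% FBS-DMEM) was added to Vero cells and removed, then the compound was applied in 2% FBS-DMEM for 20 h at 37° C, 5% CO2. After a freeze-thaw, virus yield in the medium was titred by plaque assay. EC90 is the concentration giving 90% plaque reduction versus the compound-free control.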

Vero cells = assay: Cytotoxicity, Vero cells, Alamar Blue; assay type: cell-based; settings: 25 μM, 20 hours
Description: An Assay Method for Cytotoxicity
The Vero cells were sown on a 96-well plate and then cultured overnight. The culture supernatant was removed, and 200 μl of 2% FBS-DMEM comprising 25 μM of the test compound was added. In this case, a substance to which 2% FBS-DMEM not comprising any test compound had been added was determined as a control. These cells were incubated in the presence of 5% CO2 at 37° C. for 20 hours. Alamar Blue (20 μl) was added to the cells, and cells were incubated for about 6 hours until the color of the control changed. The ratio of the absorbance was assayed using a microplate reader for absorption, and the value relative to the control was determined to be the ratio of living cells.

T1 sequence (P10210 1-247): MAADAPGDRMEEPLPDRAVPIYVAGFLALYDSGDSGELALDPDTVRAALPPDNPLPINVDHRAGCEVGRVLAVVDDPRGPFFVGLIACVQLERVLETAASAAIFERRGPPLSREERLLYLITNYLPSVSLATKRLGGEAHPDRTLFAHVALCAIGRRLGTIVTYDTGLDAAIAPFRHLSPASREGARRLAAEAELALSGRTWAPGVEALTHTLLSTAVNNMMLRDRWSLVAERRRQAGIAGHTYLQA

Row | IC50 (HSV-1 protease) | EC90 (HSV-1) | SMILES | Cell viability (% of control) (Vero cells)
1 | 2.2 µM | > 12.5 µM | Cc1c(NC(=O)OC(C)(C)C)ccc2nc(N(C)[C@@H](C)C(=O)N(C)Cc3ccccn3)oc(=O)c12 [Compound No.75, (5-Methyl-2-{methyl-[1S-(methyl-pyridin-2-ylmethyl-carbamoyl)-ethyl]-amino}-4-oxo-4H-benzo[d][1,3]oxazin-6-yl)-carbamic acid tert-butyl ester] | 93.1%
2 | 1.4 µM | 10.8 µM | Cc1c(NC(=O)C=Cc2ccccc2)ccc2nc(NC(C)(C)C(=O)N(C)CCc3ccccn3)oc(=O)c12 [Compound No.159, N-(5-Methyl-2-{1-methyl-1-[methyl-(2-pyridin-2-yl-ethyl)-carbamoyl]-ethylamino}-4-oxo-4H-benzo[d][1,3]oxazin-6-yl)-3-phenyl-acrylamide] | 15.9%
3 | 2.9 µM | < 3.2 µM | Cc1c(NC(=O)OC(C)(C)C)ccc2nc(N[C@@H](CC3CCCCC3)C(=O)N(C)CCc3ccccn3)oc(=O)c12 [Compound No.47, (2-{2-cyclohexyl-1S-[methyl-(2-pyridin-2-yl-ethyl)-carbamoyl]-ethylamino}-5-methyl-4-oxo-4H-benzo[d][1,3]oxazin-6-yl)-carbamic acid tert-butyl ester] | 36.7%
4 | 3.6 µM | ≥ 12.5 µM | Cc1c(NC(=O)C2CCC2)ccc2nc(NC(C)(C)C(=O)N(C)CCc3ccccn3)oc(=O)c12 [Compound No.198, Cyclobutanecarboxylic acid (5-methyl-2-{1-methyl-1-[methyl-(2-pyridin-2-yl-ethyl)-carbamoyl]-ethylamino}-4-oxo-4H-benzo[d][1,3]oxazin-6-yl)-amide] | 99.2%
5 | 3.7 µM | > 12.5 µM | Cc1c(NC(=O)c2cccc(C#N)c2)ccc2nc(NC(C)(C)C(=O)N(C)CCc3ccccn3)oc(=O)c12 [Compound No.143, 3-Cyano-N-(5-methyl-2-{1-methyl-1-[methyl-(2-pyridin-2-yl-ethyl)-carbamoyl]-ethylamino}-4-oxo-4H-benzo[d][1,3]oxazin-6-yl)-benzamide] | 86.9%
6 | 1.7 µM | > 12.5 µM | Cc1c(NC(=O)OC(C)(C)C)ccc2nc(N3CCC[C@H]3C(=O)NCc3cccnc3)oc(=O)c12 [Compound No.87, (5-Methyl-4-oxo-2-{2S-[(pyridin-3-ylmethyl)-carbamoyl]-pyrrolidin-1-yl}-4H-benzo[d][1,3]oxazin-6-yl)-carbamic acid tert-butyl ester] | 92.4%
7 | 1.5 µM | 10.3 µM | Cc1c(NC(=O)c2cccc(F)c2)ccc2nc(NC(C)(C)C(=O)N(C)CCc3ccccn3)oc(=O)c12 [Compound No.148, 3-Fluoro-N-(5-methyl-2-{1-methyl-1-[methyl-(2-pyridin-2-yl-ethyl)-carbamoyl]-ethylamino}-4-oxo-4H-benzo[d][1,3]oxazin-6-yl)-benzamide] | 54.6%
8 | 6.3 µM | 7.4 µM | Cc1c(NC(=O)OC(C)(C)C)ccc2nc(N3C[C@H](OCc4ccccc4)C[C@H]3C(=O)NCc3cccnc3)oc(=O)c12 [Compound No.110, (2-{4R-Benzyloxy-2S-[(pyridin-3-ylmethyl)-carbamoyl]-pyrrolidin-1-yl}-5-methyl-4-oxo-4H-benzo[d][1,3]oxazin-6-yl)-carbamic acid tert-butyl ester] | 71.9%
9 | 0.8 µM | 5.1 µM | Cc1c(NC(=O)OC(C)(C)C)ccc2nc(N[C@@H](Cc3ccccc3)C(=O)N(C)CCc3cccnc3)oc(=O)c12 [Compound No.64, (5-Methyl-2-{1S-[methyl-(2-pyridin-3-yl-ethyl)-carbamoyl]-2-phenyl-ethylamino}-4-oxo-4H-benzo[d][1,3]oxazin-6-yl)-carbamic acid tert-butyl ester] | 70.1%
10 | 14 µM | 4.6 µM | Cc1c(NC(=O)OC(C)(C)C)ccc2nc(N[C@H](C(=O)N(C)CCc3cccnc3)C(C)(C)C)oc(=O)c12 [Compound No.66, (2-{2,2-Dimethyl-1S-[methyl-(2-pyridin-3-yl-ethyl)-carbamoyl]-propylamino}-5-methyl-4-oxo-4H-benzo[d][1,3]oxazin-6-yl)-carbamic acid tert-butyl ester] | 81.5%
11 | 2.1 µM | > 12.5 µM | Cc1c(NC(=O)OC(C)(C)C)ccc2nc(N(C)[C@@H](C)C(=O)N(C)CCc3ccccn3)oc(=O)c12 [Compound No.76, [5-Methyl-2-(methyl-{1S-[methyl-(2-pyridin-2-yl-ethyl)-carbamoyl]-ethyl}-amino)-4-oxo-4H-benzo[d][1,3]oxazin-6-yl]-carbamic acid tert-butyl ester] | 87.9%
12 | 1.4 µM | > 12.5 µM | Cc1c(NC(=O)OC(C)(C)C)ccc2nc(N3CCC[C@H]3C(=O)NCCc3ccccn3)oc(=O)c12 [Compound No.89, {5-Methyl-4-oxo-2-[2S-(2-pyridin-2-ylethylcarbamoyl)-pyrrolidin-1-yl]-4H-benzo[d][1,3]oxazin-6-yl}-carbamic acid tert-butyl ester] | 92.6%
13 | 3.8 µM | > 12.5 µM | Cc1ccccc1C(=O)Nc1ccc2nc(NC(C)(C)C(=O)N(C)CCc3ccccn3)oc(=O)c2c1C [Compound No.156, 2-Methyl-N-(5-methyl-2-{1-methyl-1-[methyl-(2-pyridin-2-yl-ethyl)-carbamoyl]-ethylamino}-4-oxo-4H-benzo[d][1,3]oxazin-6-yl)-benzamide] | 78.0%
14 | 1.7 µM | < 3.2 µM | Cc1c(NC(=O)OC(C)(C)C)ccc2nc(N[C@@H](Cc3ccccc3)C(=O)N(C)Cc3ccccn3)oc(=O)c12 [Compound No.57, {5-Methyl-2-[1S-(methyl-pyridin-2-ylmethyl-carbamoyl)-2-phenyl-ethylamino]-4-oxo-4H-benzo[d][1,3]oxazin-6-yl}-carbamic acid tert-butyl ester] | 71.3%
15 | 8.7 µM | > 25 µM | Cc1c(NC(=O)OC(C)(C)C)ccc2nc(N[C@@H](CC3CCCCC3)C(=O)NCc3cccnc3)oc(=O)c12 [Compound No.27, (2-{2-Cyclohexyl-1S-[(pyridin-3-ylmethyl)-carbamoyl]-ethylamino}-5-methyl-4-oxo-4H-benzo[d][1,3]oxazin-6-yl)-carbamic acid tert-butyl ester] | 103.0%
16 | 0.4 µM | > 12.5 µM | Cc1c(NC(=O)CCCNC(=O)c2ccc(N(C)C)cc2)ccc2nc(NC(C)(C)C(=O)N(C)CCc3ccccn3)oc(=O)c12 [Compound No.224, 4-Dimethylamino-N-[3-(5-methyl-2-{1-methyl-1-[methyl-(2-pyridin-2-yl-ethyl)-carbamoyl]-ethylamino}-4-oxo-4H-benzo[d][1,3]oxazin-6-ylcarbamoyl)-propyl]-benzamide] | 107.5%
17 | 3 µM | 4.1 µM | Cc1c(NC(=O)c2ccccc2Br)ccc2nc(NC(C)(C)C(=O)N(C)CCc3ccccn3)oc(=O)c12 [compound 199, 2-Bromo-N-(5-methyl-2-{1-methyl-1-[methyl-(2-pyridin-2-yl-ethyl)-carbamoyl]-ethylamino}-4-oxo-4H-benzo[d][1,3]oxazin-6-yl)-benzamide] | 56.9%
18 | 1.6 µM | 3.2 µM | Cc1c(NC(=O)c2cccc(Br)c2)ccc2nc(NC(C)(C)C(=O)N(C)CCc3ccccn3)oc(=O)c12 [Compound No.200, 3-Bromo-N-(5-methyl-2-{1-methyl-1-[methyl-(2-pyridin-2-yl-ethyl)-carbamoyl]-ethylamino}-4-oxo-4H-benzo[d][1,3]oxazin-6-yl)-benzamide] | 21.5%
19 | 0.9 µM | < 3.2 µM | Cc1c(NC(=O)OC(C)(C)C)ccc2nc(N[C@@H](C)C(=O)N(C)CCc3ccncc3)oc(=O)c12 [Compound No.50, (5-Methyl-2-{1S-[methyl-(2-pyridin-4-yl-ethyl)-carbamoyl]-ethylamino}-4-oxo-4H-benzo[d][1,3]oxazin-6-yl)-carbamic acid tert-butyl ester] | 106.0%
20 | 3.3 µM | 6.2 µM | Cc1cccc(C(=O)Nc2ccc3nc(NC(C)(C)C(=O)N(C)CCc4ccccn4)oc(=O)c3c2C)c1 [compound 157, 3-Methyl-N-(5-methyl-2-{1-methyl-1-[methyl-(2-pyridin-2-yl-ethyl)-carbamoyl]-ethylamino}-4-oxo-4H-benzo[d][1,3]oxazin-6-yl)-benzamide] | 70.5%
21 | > 20 µM | > 12.5 µM | Cc1c(NC(=O)OC(C)(C)C)ccc2nc(N3CCC[C@H]3C(=O)N(C)CCc3ccncc3)oc(=O)c12 [Compound No.93, (5-Methyl-2-{2S-[methyl-(2-pyridin-4-yl-ethyl)-carbamoyl]-pyrrolidin-1-yl}-4-oxo-4H-benzo[d][1,3]oxazin-6-yl)-carbamic acid tert-butyl ester] | 82.4%
